Assays:
Experiment in all cases: In vitro antibacterial activity (MIC), agar dilution
[1] = test system: STAPHYLOCOCCUS AUREUS CMX 642A; assay type: cell-based; conditions: S. aureus CMX 642A; BHI agar, 35-37 °C, 20-24 h
[2] = test system: STR[…] 508; assay type: cell-based, Streptococcus agalactiae; conditions: S. agalactiae CMX 508; BHI agar, 35-37 °C, 20-24 h
Description: (§1) Representative compounds of the present invention were assayed in vitro for antibacterial activity as follows: Twelve petri dishes containing successive aqueous dilutions of the test compound mixed with 10 mL of sterilized Brain Heart Infusion (BHI) agar (Difco 0418-01-5) were prepared. Each plate was inoculated with 1:100 (or 1:10 for slow-growing strains, such as Micrococcus and Streptococcus) dilutions of up to 32 different microorganisms, using a Steers replicator block. The inoculated plates were incubated at 35°-37° C. for 20 to 24 hours. In addition, a control plate, using BHI agar containing no test compound, was prepared and incubated at the beginning and end of each test.
(§2) An additional plate containing a compound having known susceptibility patterns for the organisms being tested and belonging to the same antibiotic class as the test compound was also prepared and incubated as a further control, as well as to provide test-to-test comparability. Erythromycin A was used for this purpose.
(§3) After incubation, each plate was examined. The minimum inhibitory concentration (MIC) was defined as the lowest concentration of drug yielding no growth, a slight haze, or sparsely isolated colonies on the inoculum spot as compared to the growth control.

[3] = test system: NOCARDIA ARSTEROIDES ATCC 9970; assay type: cell-based; conditions: Nocardia ATCC 9970; BHI agar, 35-37 °C, 20-24 h
[4] = test system: PROVIDENCIA STUARTII CMX 640; assay type: cell-based; conditions: P. stuartii CMX 640; BHI agar, 35-37 °C, 20-24 h
[5] = test system: STREPTOCOCCUS BOVIS A-5169; assay type: cell-based; conditions: S. bovis A-5169; BHI agar, 35-37 °C, 20-24 h
[6] = test system: STAPHYLOCOCCUS AUREUS CMX 553; assay type: cell-based; conditions: S. aureus CMX 553; BHI agar, 35-37 °C, 20-24 h
[7] = test system: ESCHERICHIA COLI KNK 437; assay type: cell-based; conditions: E. coli KNK 437; BHI agar, 35-37 °C, 20-24 h
[8] = test system: PSEUDOMONAS AERUGINOSA 5007; assay type: cell-based; conditions: P. aeruginosa 5007; BHI agar, 35-37 °C, 20-24 h
[9] = test system: M[…] ATCC 9341; assay type: cell-based, Micrococcus luteus; conditions: M. luteus ATCC 9341; BHI agar, 35-37 °C, 20-24 h
Description: as §1, §2, §3

[10] = test system: M[…] ATCC 4698; assay type: cell-based, Micrococcus luteus; conditions: M. luteus ATCC 4698; BHI agar, 35-37 °C, 20-24 h
Description: as §1, §2, §3

[11] = test system: EN[…] ATCC 8043; assay type: cell-based, Enterococcus faecium; conditions: E. faecium ATCC 8043; BHI agar, 35-37 °C, 20-24 h
Description: as §1, §2, §3

[12] = test system: STAPHYLOCOCCUS AUREUS ATCC 6538P; assay type: cell-based; conditions: S. aureus ATCC 6538P; BHI agar, 35-37 °C, 20-24 h
[13] = test system: STAPHYLOCOCCUS EPIDERMIDIS 3519; assay type: cell-based; conditions: S. epidermidis 3519; BHI agar, 35-37 °C, 20-24 h
[14] = test system: ESCHERICHIA COLI SS; assay type: cell-based; conditions: E. coli SS; BHI agar, 35-37 °C, 20-24 h
[15] = test system: STAPHYLOCOCCUS AUREUS NCTC10649M; assay type: cell-based; conditions: S. aureus NCTC10649M; BHI agar, 35-37 °C, 20-24 h
[16] = test system: PSEUDOMONAS AERUGINOSA K799/61; assay type: cell-based; conditions: P. aeruginosa K799/61; BHI agar, 35-37 °C, 20-24 h
[17] = test system: STAPHYLOCOCCUS AUREUS 1775; assay type: cell-based; conditions: S. aureus 1775; BHI agar, 35-37 °C, 20-24 h
[18] = test system: ESCHERICHIA COLI DC-2; assay type: cell-based; conditions: E. coli DC-2; BHI agar, 35-37 °C, 20-24 h
[19] = test system: ESCHERICHIA COLI H560; assay type: cell-based; conditions: E. coli H560; BHI agar, 35-37 °C, 20-24 h
[20] = test system: KLEBSIELLA PNEUMONIAE ATCC 8045; assay type: cell-based; conditions: K. pneumoniae ATCC 8045; BHI agar, 35-37 °C, 20-24 h
[21] = test system: ACINETOBACTER CALCOACETICUS CMX 669; assay type: cell-based; conditions: A. calcoaceticus CMX 669; BHI agar, 35-37 °C, 20-24 h
[22] = test system: CANDIDA ALBICANS CCH 442; assay type: cell-based; conditions: C. albicans CCH 442; BHI agar, 35-37 °C, 20-24 h
[23] = test system: STAPHYLOCOCCUS AUREUS A-5278; assay type: cell-based; conditions: S. aureus A-5278; BHI agar, 35-37 °C, 20-24 h
[24] = test system: MYCOBACTERIUM SMEGMATIS ATCC 114; assay type: cell-based; conditions: M. smegmatis ATCC 114; BHI agar, 35-37 °C, 20-24 h
[25] = test system: STREPTOCOCCUS PYOGENES EES61; assay type: cell-based; conditions: S. pyogenes EES61; BHI agar, 35-37 °C, 20-24 h
[26] = test system: PSEUDOMONAS AERUGINOSA DPHD-2862; assay type: cell-based; conditions: P. aeruginosa DPHD-2862; BHI agar, 35-37 °C, 20-24 h

Compound | minimum inhibitory concentration (MIC) [1] | minimum inhibitory concentration (MIC) [2] | minimum inhibitory concentration (MIC) [3] | minimum inhibitory concentration (MIC) [4] | minimum inhibitory concentration (MIC) [5] | minimum inhibitory concentration (MIC) [6] | minimum inhibitory concentration (MIC) [7] | minimum inhibitory concentration (MIC) [8] | minimum inhibitory concentration (MIC) [9] | minimum inhibitory concentration (MIC) [10] | minimum inhibitory concentration (MIC) [11] | minimum inhibitory concentration (MIC) [12] | minimum inhibitory concentration (MIC) [13] | minimum inhibitory concentration (MIC) [14] | minimum inhibitory concentration (MIC) [15] | minimum inhibitory concentration (MIC) [16] | minimum inhibitory concentration (MIC) [17] | minimum inhibitory concentration (MIC) [18] | minimum inhibitory concentration (MIC) [19] | minimum inhibitory concentration (MIC) [20] | also measured
CC[C@H]1OC(=O)[C@H](C)C[C@H](C)[C@@H](O[C@@H]2O[C@H](C)C[C@H](N(C)C)[C@H]2O)[C@](C)(OC)C[C@@H](C)C(=O)[C@H](C)[C@H]2OC(=O)O[C@@]21C [Ex. 3] | 3.1 | 0.2 | 0.2 | > 100 | 0.2 | 3.1 | > 100 | > 100 | 0.78 | 0.78 | 0.78 | 6.2 | 6.2 | 0.78 | 6.2 | > 100 | > 100 | > 100 | > 100 | > 100 | minimum inhibitory concentration (MIC) [21]: > 100; minimum inhibitory concentration (MIC) [22]: > 100; minimum inhibitory concentration (MIC) [23]: > 100; minimum inhibitory concentration (MIC) [24]: 3.1; minimum inhibitory concentration (MIC) [25]: 0.2; minimum inhibitory concentration (MIC) [26]: > 100
CC[C@H]1OC(=O)[C@H](C)C[C@H](C)[C@@H](O[C@@H]2O[C@H](C)C[C@H](N(C)C)[C@H]2O)[C@](C)(OC)C[C@@H](C)C(=O)[C@H](C)[C@H]2N(CCCCc3ccccc3)C(=O)O[C@]12C [Ex. 4] | 1.56 | 0.1 | 3.1 | > 100 | 0.02 | 1.56 | > 100 | > 100 | 1.56 | 1.56 | 0.39 | 1.56 | 1.56 | 1.56 | 1.56 | 12.5 | 50 | 50 | 25 | > 100 | minimum inhibitory concentration (MIC) [21]: 100; minimum inhibitory concentration (MIC) [22]: 100; minimum inhibitory concentration (MIC) [23]: 50; minimum inhibitory concentration (MIC) [24]: 1.56; minimum inhibitory concentration (MIC) [25]: 0.05; minimum inhibitory concentration (MIC) [26]: > 100
CC[C@H]1OC(=O)[C@H](C)C[C@H](C)[C@@H](O[C@@H]2O[C@H](C)C[C@H](N(C)C)[C@H]2O)[C@](C)(OC)C[C@@H](C)C(=O)[C@H](C)[C@@H](O)[C@]1(C)O [Ex. 1] | 25 | 3.1 | 1.56 | > 100 | 0.78 | 25 | > 100 | > 100 | 3.1 | 6.2 | 25 | 25 | 50 | 0.78 | 6.2 | > 100 | > 100 | > 100 | > 100 | > 100 | minimum inhibitory concentration (MIC) [21]: > 100; minimum inhibitory concentration (MIC) [22]: > 100; minimum inhibitory concentration (MIC) [23]: > 100; minimum inhibitory concentration (MIC) [24]: 100; minimum inhibitory concentration (MIC) [25]: 1.56; minimum inhibitory concentration (MIC) [26]: > 100

Reference: patent US5747466A, “3-deoxy-3-descladinose derivatives of erythromycins A and B” (Abbott Laboratories, priority 1996, dated 1998)
